# Experimental data as given in patent US20260076372A1, “SPRAYABLE ANTIFUNGAL COMPOSITION FOR USE IN THE FIELD OF AGRICULTURE, AND ASSOCIATED METHOD AND USE” (GAIAGO, priority 2022, published 2026).
# What was measured:
# Assay type in all cases: cell-based
# Alternaria solani = test: in vitro 96-well micro-titration test on Alternaria solani spores; details: for EC95 (%): A. solani, Table 22, ingredient alone in water
# [1] = system: Septoria tritici (Zymoseptoria tritici); test: in vitro 96-well micro-titration test on Septoria tritici / Zymoseptoria tritici; details: for EC95 (%): Z. tritici, Table 23, ingredient alone in water
# Plasmopara viticola = test: in vitro antifungal action of single ingredients on Plasmopara viticola
# Text: In Vitro Results Showing the Syngergistic Action of Yucca Juice with the Other Compounds of the Composition According to the Invention on A. solani, Z. tritici, and Plasmopara viticola,
# The following tables show in vitro the synergistic antifungal action between yucca juice and the other compounds of the composition of the invention on various pathogens. The concentrations given are as a mass %. The solutions tested as aqueous solutions.
# Mo denotes sodium molybdate, Bo denotes boron ethanolamine.
# [2] = Concentration 0.05% mass of the stated aqueous solution
Compound,EC95 (%) (Alternaria solani),"inhibition of A. solani, ingredient alone in water (Alternaria solani; [2]) [%]","inhibition of A. solani, ingredient alone in water (Alternaria solani; Concentration 0.50%) [%]","inhibition of A. solani, ingredient alone in water (Alternaria solani; Concentration 1.00%) [%]","inhibition of A. solani, ingredient alone in water (Alternaria solani; Concentration 2.00%) [%]","inhibition of A. solani, ingredient alone in water (Alternaria solani; Concentration 3.00%) [%]","inhibition of A. solani, ingredient alone in water (Alternaria solani; Concentration 6.00%) [%]","inhibition of A. solani, ingredient alone in water (Alternaria solani; Concentration 10.00%) [%]","inhibition of Z. tritici, ingredient alone in water ([1]; Concentration 0.05%) [%]","inhibition of Z. tritici, ingredient alone in water ([1]; Concentration 0.50%) [%]","inhibition of Z. tritici, ingredient alone in water ([1]; Concentration 1.00%) [%]","inhibition of Z. tritici, ingredient alone in water ([1]; Concentration 2.00%) [%]","inhibition of Z. tritici, ingredient alone in water ([1]; Concentration 3.00%) [%]","inhibition of Z. tritici, ingredient alone in water ([1]; Concentration 6.00%) [%]","inhibition of Z. tritici, ingredient alone in water ([1]; Concentration 10.00%) [%]",EC95 (%) [1] [%],"in vitro activity against Plasmopara viticola, ingredient alone in water (Plasmopara viticola; Concentration 0.05%) [%]","in vitro activity against Plasmopara viticola, ingredient alone in water (Plasmopara viticola; Concentration 0.50%) [%]","in vitro activity against Plasmopara viticola, ingredient alone in water (Plasmopara viticola; Concentration 1.00%) [%]","in vitro activity against Plasmopara viticola, ingredient alone in water (Plasmopara viticola; Concentration 2.00%) [%]",further results
O=S(=O)([O-])[O-].[Fe+2] [Fe 4%],2.3,−4.7,−4.3,−0.4,49.6,100.0,100.0,100.0,9.8,37.1,38.8,54.9,100.0,100.0,100.0,2.86,–,–,–,–,efficacy against Z. tritici (glume blotch) in vitro ([1]; dose of 0.5%): ~37%
O=S(=O)([O-])[O-].[Cu+2] [Cu 1.5%],>10,−2.8,−1.4,−1.9,−1.8,−4.9,−1.8,−2.9,11.9,17.3,22.1,23.6,20.9,24.1,28.2,>10,–,–,–,–,–
O=S(=O)([O-])[O-].[Mn+2] [Mn 3.7%],>10,−2.3,0.0,12.8,15.1,17.6,38.8,48.4,12.9,13.8,12.9,18.6,20.0,17.0,23.1,>10,31.02,87.05,94.13,97.24,"in vitro activity against Plasmopara viticola, ingredient alone in water (Plasmopara viticola; Concentration 3.00%): 97.70%; in vitro activity against Plasmopara viticola, ingredient alone in water (Plasmopara viticola; Concentration 6.00%): 97.72%; in vitro activity against Plasmopara viticola, ingredient alone in water (Plasmopara viticola; Concentration 10.00%): 97.79%"
O=S(=O)([O-])[O-].[Zn+2] [Zn 7%],>10,−1.4,6.3,16.6,32.1,37.2,49.7,59.1,−4.9,28.1,39.8,44.1,47.4,65.0,77.2,>10,7.02,50.25,65.51,99.08,"in vitro activity against Plasmopara viticola, ingredient alone in water (Plasmopara viticola; Concentration 3.00%): 99.29%; in vitro activity against Plasmopara viticola, ingredient alone in water (Plasmopara viticola; Concentration 6.00%): 98.93%; in vitro activity against Plasmopara viticola, ingredient alone in water (Plasmopara viticola; Concentration 10.00%): 99.08%"
[Cl-].[K+] [KCl 0.24%],>10,1.2,−3.6,−3.9,−8.9,−1.3,−1.2,−2.9,4.7,2.2,1.4,0.1,0.3,7.9,3.8,>10,10.83,51.35,69.10,75.81,"in vitro activity against Plasmopara viticola, ingredient alone in water (Plasmopara viticola; Concentration 3.00%): 83.20%; in vitro activity against Plasmopara viticola, ingredient alone in water (Plasmopara viticola; Concentration 6.00%): 94.91%; in vitro activity against Plasmopara viticola, ingredient alone in water (Plasmopara viticola; Concentration 10.00%): 97.43%"
"[Na+].[Na+].[O]=[Mo](=[O])([O-])[O-] [Mo 0.01%, sodium molybdate]",>10,2.2,−1.2,−7.4,−1.3,−1.8,−1.5,−0.4,−1.7,−1.1,−2.3,−2.2,−1.8,−1.6,−2.2,>10,15.33,46.43,53.15,72.42,"in vitro activity against Plasmopara viticola, ingredient alone in water (Plasmopara viticola; Concentration 3.00%): 74.22%; in vitro activity against Plasmopara viticola, ingredient alone in water (Plasmopara viticola; Concentration 6.00%): 74.22%; in vitro activity against Plasmopara viticola, ingredient alone in water (Plasmopara viticola; Concentration 10.00%): 96.02%"
boron ethanolamine [Bo 0.49%],>10,6.5,0.9,−0.5,−2.6,2.4,−3.6,−3.3,8.6,7.6,5.3,−1.6,−0.8,−4.3,−1.0,–,17.33,68.80,84.60,90.99,"in vitro activity against Plasmopara viticola, ingredient alone in water (Plasmopara viticola; Concentration 3.00%): 95.55%; in vitro activity against Plasmopara viticola, ingredient alone in water (Plasmopara viticola; Concentration 6.00%): 98.96%; in vitro activity against Plasmopara viticola, ingredient alone in water (Plasmopara viticola; Concentration 10.00%): 99.00%"
O=S(=O)([O-])[O-].[Mn+2] [Mn 7%],6.4,0.0,16.9,29.6,73.2,89.4,94.5,101.1,11.3,27.6,33.5,28.7,28.0,29.0,29.5,>10,25.41,89.41,94.78,97.25,"in vitro activity against Plasmopara viticola, ingredient alone in water (Plasmopara viticola; Concentration 3.00%): 97.53%; in vitro activity against Plasmopara viticola, ingredient alone in water (Plasmopara viticola; Concentration 6.00%): 97.69%; in vitro activity against Plasmopara viticola, ingredient alone in water (Plasmopara viticola; Concentration 10.00%): 97.64%"
